Several values for one entry are separate records, joined by “and”; a condition that tells them apart may be missing. Equal entries are not always repeated. Inconclusive results and toxic doses are left out.

This assay relates to P388 leukemia ip, CD2F1 mice, survival T/C. Description: NCI In Vivo Anticancer Drug Screen. Data for tumor model P388 Leukemia (intraperitoneal) in CD2F1 (CDF1) mice. The note with it: endpoint: median survival time, higher = longer survival. A digest of the protocol: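 Mice carrying the transplanted tumor received test compound or vehicle. Survival was recorded in each group, and the value is the treated-group measurement divided by that of the vehicle-treated control group.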

The mark [1] stands for this setting: dose: 60.0 mg/kg/injection, schedule: Q01DX005 (ip), vehicle: Klucel (hydroxypropylcellulose) (HPC).
Where [2] appears, read: dose: 120.0 mg/kg/injection, schedule: Q01DX005 (ip), vehicle: Klucel (hydroxypropylcellulose) (HPC).
[3] abbreviates: dose: 240.0 mg/kg/injection, schedule: Q01DX005 (ip), vehicle: Klucel (hydroxypropylcellulose) (HPC).
The mark [4] stands for this setting: dose: 1.0 mg/kg/injection, schedule: Q01DX009 (ip), vehicle: saline.
[5] abbreviates: dose: 200.0 mg/kg/injection, schedule: Q01DX009 (ip), vehicle: saline with Tween-80.
Where [6] appears, read: dose: 50.0 mg/kg/injection, schedule: Q01DX005 (ip), vehicle: saline with Tween-80.
The mark [7] stands for this setting: dose: 100.0 mg/kg/injection, schedule: Q01DX005 (ip), vehicle: saline with Tween-80.
[8] abbreviates: dose: 200.0 mg/kg/injection, schedule: Q01DX005 (ip), vehicle: saline with Tween-80.
The mark [9] stands for this setting: dose: 60.0 mg/kg/injection, schedule: Q01DX005 (ip), vehicle: saline with Tween-80.
The mark [10] stands for this setting: dose: 120.0 mg/kg/injection, schedule: Q01DX005 (ip), vehicle: saline with Tween-80.
Where [11] appears, read: dose: 240.0 mg/kg/injection, schedule: Q01DX005 (ip), vehicle: saline with Tween-80.

`O=NNc1c2ccccc2nc2ccccc12`: the T/C was 99 % of control (dose: 0.09 mg/kg/injection, schedule: Q01DX009 (ip), vehicle: water); 95 % of control (dose: 0.18 mg/kg/injection, schedule: Q01DX009 (ip), vehicle: water); 101 % of control (dose: 0.37 mg/kg/injection, schedule: Q01DX009 (ip), vehicle: water); 104 % of control (dose: 0.75 mg/kg/injection, schedule: Q01DX009 (ip), vehicle: water); 86 % of control (dose: 1.5 mg/kg/injection, schedule: Q01DX009 (ip), vehicle: water).
Turning to `COc1cccc(C2CC(C)(O)Oc3cc4c(cc32)OCO4)c1O` (stereo not drawn), the T/C under setting [1] was 100 % of control, the T/C under setting [2] is 100 % of control and the T/C under setting [3] was 92 % of control.
For the molecule `CN1C(=O)C2(CC2C(=O)c2ccc(Cl)cc2)c2ccccc21` (stereo not drawn), the T/C (dose: 2.5 mg/kg/injection, schedule: Q04DX002 (ip), vehicle: saline with Tween-80) is 108 % of control; the T/C (dose: 5.0 mg/kg/injection, schedule: Q04DX002 (ip), vehicle: saline with Tween-80) was 100 % of control; the T/C (dose: 10.0 mg/kg/injection, schedule: Q04DX002 (ip), vehicle: saline with Tween-80) was 99 % of control.
With `Nc1ncnc2c1ncn2C1C=C(CO)C(O)C1O` (stereo not drawn), the T/C was 163 % of control under setting [4]; 163 % of control (dose: 2.0 mg/kg/injection, schedule: Q01DX009 (ip), vehicle: saline); 161 % of control (dose: 4.0 mg/kg/injection, schedule: Q01DX009 (ip), vehicle: Klucel (hydroxypropylcellulose) (HPC)); 156 % of control (dose: 4.0 mg/kg/injection, schedule: Q01DX009 (ip), vehicle: saline); 153 % of control and 161 % of control (dose: 8.0 mg/kg/injection, schedule: Q01DX009 (ip), vehicle: Klucel (hydroxypropylcellulose) (HPC)); 152 % of control and 182 % of control (dose: 8.0 mg/kg/injection, schedule: Q01DX009 (ip), vehicle: saline).
Take `CC(=O)OC1C2CCC3C(C)(O)C4CC(O)C(C)(C)C4(O)C(O)CC13CC2(C)O` (stereo not drawn): the T/C runs as follows: (dose: 0.09 mg/kg/injection, schedule: Q01DX009 (ip), vehicle: saline) 100 % of control; (dose: 0.19 mg/kg/injection, schedule: Q01DX009 (ip), vehicle: saline) 98 % of control; (dose: 0.25 mg/kg/injection, schedule: Q01DX009 (ip), vehicle: saline) 116 % of control; (dose: 0.39 mg/kg/injection, schedule: Q01DX009 (ip), vehicle: saline) 100 % of control and 89 % of control; (dose: 0.5 mg/kg/injection, schedule: Q01DX009 (ip), vehicle: saline) 108 % of control; under setting [4], 107 % of control.
Take `C=CC(C)(O)CS(=O)(=O)c1ccccc1` (stereo not drawn): the T/C was 93 % of control (dose: 50.0 mg/kg/injection, schedule: Q01DX009 (ip), vehicle: saline); 101 % of control (dose: 100.0 mg/kg/injection, schedule: Q01DX009 (ip), vehicle: saline); 101 % of control (dose: 200.0 mg/kg/injection, schedule: Q01DX009 (ip), vehicle: saline).
Consider `O=C1CSc2ccccc2-n2cccc21`, for which the T/C runs as follows: under setting [1], 89 % of control; under setting [2], 109 % of control; under setting [3], 101 % of control.
Take `C=C1C(=O)O[C@@H]2C[C@@H](C)[C@@H]3[C@@H](OC(C)=O)[C@@H](OC(C)=O)[C@H](OC(C)=O)[C@@]3(C)C[C@H]12`: the T/C is, setting by setting: (dose: 9.5 mg/kg/injection, schedule: Q01DX005 (ip), vehicle: Klucel (hydroxypropylcellulose) (HPC)) 102 % of control; (dose: 19.0 mg/kg/injection, schedule: Q01DX005 (ip), vehicle: Klucel (hydroxypropylcellulose) (HPC)) 100 % of control; (dose: 38.0 mg/kg/injection, schedule: Q01DX005 (ip), vehicle: Klucel (hydroxypropylcellulose) (HPC)) 106 % of control; (dose: 76.0 mg/kg/injection, schedule: Q01DX005 (ip), vehicle: Klucel (hydroxypropylcellulose) (HPC)) 97 % of control.
Consider `Clc1ccc(N=C(SSC(Cl)(Cl)Cl)SSC(Cl)(Cl)Cl)cc1`, for which, under setting [5], the T/C was 114 % of control.
`CSC(C(=O)O)c1cc(-c2c(Cl)cccc2Cl)no1` (stereo not drawn): the T/C is, setting by setting: under setting [6], 104 % of control; under setting [7], 105 % of control; under setting [8], 107 % of control.
Take `CCN(CC)CCN1c2ccccc2Sc2ccc3ccccc3c21`: the T/C runs as follows: (dose: 50.0 mg/kg/injection, schedule: Q01DX005 (ip), vehicle: saline + Tween-80 + alcohol) 107 % of control; (dose: 100.0 mg/kg/injection, schedule: Q01DX005 (ip), vehicle: saline + Tween-80 + alcohol) 105 % of control; (dose: 200.0 mg/kg/injection, schedule: Q01DX005 (ip), vehicle: saline + Tween-80 + alcohol) 102 % of control.
Take `CCOC(=O)C(Cc1ccc(N(CCCl)CCCl)cc1)NC(=O)CNC(C)=O` (stereo not drawn): the T/C runs as follows: (dose: 0.5 mg/kg/injection, schedule: Q04DX003 (ip), vehicle: saline with Tween-80) 113 % of control; (dose: 1.0 mg/kg/injection, schedule: Q04DX003 (ip), vehicle: saline with Tween-80) 104 % of control; (dose: 12.5 mg/kg/injection, schedule: Q01DX009 (ip), vehicle: saline with Tween-80) 177 % of control; (dose: 12.5 mg/kg/injection, schedule: Q04DX003 (ip), vehicle: saline) 165 % of control; (dose: 25.0 mg/kg/injection, schedule: Q01DX009 (ip), vehicle: saline with Tween-80) 268 % of control; (dose: 33.0 mg/kg/injection, schedule: Q04DX003 (ip), vehicle: saline with Tween-80) 113 % of control. The T/C (dose: 50.0 mg/kg/injection, schedule: Q04DX003 (ip), vehicle: saline with Tween-80) is 90 % of control.
For the molecule `O=C(c1cccs1)C1NO[N+]([O-])=C1c1cccs1` (stereo not drawn), the T/C runs as follows: (dose: 6.25 mg/kg/injection, schedule: Q01DX005 (ip), vehicle: saline with Tween-80) 100 % of control; (dose: 12.5 mg/kg/injection, schedule: Q01DX005 (ip), vehicle: saline with Tween-80) 106 % of control; (dose: 25.0 mg/kg/injection, schedule: Q01DX005 (ip), vehicle: saline with Tween-80) 115 % of control.
As to `O=c1c(Cc2ccccc2)coc2ccccc12`, the T/C was 106 % of control under setting [9], 100 % of control under setting [10] and 103 % of control under setting [11].
As for `O=C(O)C(Oc1ccc(Cl)cc1Cl)C(Oc1ccc(Cl)cc1Cl)C(=O)O` (stereo not drawn), the T/C reads like this: under setting [1], 101 % of control; under setting [2], 101 % of control; under setting [3], 100 % of control.
As to `O=C(CNC(=O)OCc1ccccc1)Oc1ccccc1[N+](=O)[O-]`, the T/C is 94 % of control (dose: 50.0 mg/kg/injection, schedule: Q01DX009 (ip), vehicle: saline with Tween-80); 100 % of control (dose: 100.0 mg/kg/injection, schedule: Q01DX009 (ip), vehicle: saline with Tween-80); 111 % of control under setting [5].
As to `CNC(=S)N\N=C/C(/C=C/c1ccccc1)=N\NC(=S)NC`, the T/C (dose: 100.0 mg/kg/injection, schedule: Q01DX001 (ip), vehicle: Klucel (hydroxypropylcellulose) (HPC)) is 90 % of control and the T/C (dose: 200.0 mg/kg/injection, schedule: Q01DX001 (ip), vehicle: Klucel (hydroxypropylcellulose) (HPC)) is 100 % of control.
As to `COc1cccc2cc(-c3c[nH]c4ccccc34)c(=O)oc12`, the T/C reads like this: under setting [9], 105 % of control; under setting [10], 98 % of control; under setting [11], 95 % of control.
Turning to `CCCCCCC(=O)CC(SCCO)c1ccc(Cl)c(Cl)c1` (stereo not drawn), the T/C runs as follows: (dose: 100.0 mg/kg/injection, schedule: Q04DX003 (ip), vehicle: suspension in saline) 99 % of control; (dose: 200.0 mg/kg/injection, schedule: Q04DX003 (ip), vehicle: suspension in saline) 104 % of control; (dose: 400.0 mg/kg/injection, schedule: Q04DX003 (ip), vehicle: suspension in saline) 104 % of control.
Turning to `COc1cc2c3cc1Oc1cc(ccc1O)C[C@@H]1c4c(cc(OC)c(O)c4Oc4ccc(cc4)C[C@@H]3[N+](C)(C)CC2)CC[N+]1(C)C`, the T/C is, setting by setting: (dose: 0.06 mg/kg/injection, schedule: Q01DX009 (ip), vehicle: saline with Tween-80) 96 % of control; (dose: 0.13 mg/kg/injection, schedule: Q01DX009 (ip), vehicle: saline with Tween-80) 92 % of control; (dose: 0.25 mg/kg/injection, schedule: Q01DX009 (ip), vehicle: saline with Tween-80) 89 % of control.
As for `NC(=O)N/N=C1/CCC(OC(=O)c2ccccc2)CC1CC(=O)O` (stereo not drawn), the T/C reads like this: under setting [6], 100 % of control; under setting [7], 100 % of control; under setting [8], 100 % of control.

For the origin of these results see PubChem BioAssay AID330 (DTP/NCI, 2004).
